From patent US12077503B2, “Substituted cyclic amides and their use as herbicides” (FMC CORPORATION, priority 2015, dated 2024)

Tests used:
Type in all cases: in vivo
[1] = tested on: giant foxtail (Setaria faberi); assay: Test G Post-Emergence Protocol; conditions: Setaria faberi, post-emergence, 312 h; for pest or weed control at 15.625 g/ha: 15.625 g ai/ha, evaluated after 13 days (100=total damage to plant; 0=no damage to plant), read-out: Foxtail, Giant damage rating; for pest or weed control at 62.5 g/ha: 62.5 g ai/ha, read-out: Foxtail, Giant damage rating (100=total damage to plant; 0=no damage to plant); for pest or weed control at 62.5 g/ha / pest or weed control at 250 g/ha: evaluated after 13 days; for pest or weed control at 250 g/ha: 250 g ai/ha, read-out: damage to plant, Foxtail, Giant (100=total damage to plant; 0=no damage to plant)
Outline: (§1)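 Seedlings grown 8 days in soil in a glasshouse (24/16 °C day/night, 14 h light, 65% humidity) were sprayed post-emergence with compound in acetone/water 50:50 plus 0.5% Tween 20 at 15.625, 62.5 or 250 g/ha. Damage was scored after 13 days on a 0–100 scale (100 = total damage).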

[2] = tested on: barnyardgrass (Echinochloa crus-galli); assay: Test G Post-Emergence Protocol; conditions: Echinochloa crus-galli, post-emergence, 312 h; for pest or weed control at 15.625 g/ha: 15.625 g ai/ha, evaluated after 13 days (100=total damage to plant; 0=no damage to plant), read-out: Barnyardgrass damage rating; for pest or weed control at 62.5 g/ha: 62.5 g ai/ha, read-out: Barnyardgrass damage rating (100=total damage to plant; 0=no damage to plant); for pest or weed control at 62.5 g/ha / pest or weed control at 250 g/ha: evaluated after 13 days; for pest or weed control at 250 g/ha: 250 g ai/ha, read-out: damage to plant, Barnyardgrass (100=total damage to plant; 0=no damage to plant)
Outline: as §1

corn (Zea mays) [3] = assay: Test G Post-Emergence Protocol; conditions: Zea mays, post-emergence, 312 h; for plant injury at 15.625 g/ha: 15.625 g ai/ha, evaluated after 13 days (100=total damage to plant; 0=no damage to plant), read-out: Corn damage rating; for plant injury at 62.5 g/ha: 62.5 g ai/ha, read-out: Corn damage rating (100=total damage to plant; 0=no damage to plant); for plant injury at 62.5 g/ha / plant injury at 250 g/ha: evaluated after 13 days; for plant injury at 250 g/ha: 250 g ai/ha, read-out: damage to plant, Corn (100=total damage to plant; 0=no damage to plant)
Outline: as §1

[4] = tested on: redroot pigweed (Amaranthus retroflexus); assay: Test G Post-Emergence Protocol; conditions: Amaranthus retroflexus, post-emergence, 312 h; for pest or weed control at 15.625 g/ha: 15.625 g ai/ha, evaluated after 13 days (100=total damage to plant; 0=no damage to plant), read-out: Pigweed, Redroot damage rating; for pest or weed control at 62.5 g/ha: 62.5 g ai/ha, read-out: Pigweed, Redroot damage rating (100=total damage to plant; 0=no damage to plant); for pest or weed control at 62.5 g/ha / pest or weed control at 250 g/ha: evaluated after 13 days; for pest or weed control at 250 g/ha: 250 g ai/ha, read-out: damage to plant, Pigweed, Redroot (100=total damage to plant; 0=no damage to plant)
Outline: as §1

[5] = tested on: ivy-leaved morning glory (Ipomoea hederacea); assay: Test G Post-Emergence Protocol; conditions: Ipomoea, post-emergence, 312 h; for pest or weed control at 15.625 g/ha: 15.625 g ai/ha, evaluated after 13 days (100=total damage to plant; 0=no damage to plant), read-out: Morningglory, Ivy-leaved damage rating; for pest or weed control at 62.5 g/ha: 62.5 g ai/ha, read-out: Morningglory, Ivy-leaved damage rating (100=total damage to plant; 0=no damage to plant); for pest or weed control at 62.5 g/ha / pest or weed control at 250 g/ha: evaluated after 13 days; for pest or weed control at 250 g/ha: 250 g ai/ha, read-out: damage to plant, Morningglory, Ivy-leaved (100=total damage to plant; 0=no damage to plant)
Outline: as §1

[6] = tested on: velvetleaf (Abutilon theophrasti); assay: Test G Post-Emergence Protocol; conditions: Abutilon theophrasti, post-emergence, 312 h; for pest or weed control at 15.625 g/ha: 15.625 g ai/ha, evaluated after 13 days (100=total damage to plant; 0=no damage to plant), read-out: Velvetleaf damage rating; for pest or weed control at 62.5 g/ha: 62.5 g ai/ha, read-out: Velvetleaf damage rating (100=total damage to plant; 0=no damage to plant); for pest or weed control at 62.5 g/ha / pest or weed control at 250 g/ha: evaluated after 13 days; for pest or weed control at 250 g/ha: 250 g ai/ha, read-out: damage to plant, Velvetleaf (100=total damage to plant; 0=no damage to plant)
Outline: as §1

[7] = tested on: giant foxtail (Setaria faberi); assay: Test G Pre-Emergence Protocol; conditions: Setaria faberi, pre-emergence, 312 h, evaluated after 13 days; for pest or weed control at 15.625 g/ha: 15.625 g ai/ha; for pest or weed control at 15.625 g/ha / pest or weed control at 250 g/ha: read-out: Foxtail, Giant damage rating (100=total damage to plant; 0=no damage to plant); for pest or weed control at 62.5 g/ha: 62.5 g ai/ha, 100=total damage to plant, 0=no damage to plant, read-out: plant damage rating, Foxtail, Giant; for pest or weed control at 250 g/ha: 250 g ai/ha
Outline: (§2)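 Pre-emergence spray, 15.625/62.5/250 g/ha, vehicle acetone:water 50:50 + 0.5% Tween 20, applied 1 d after sowing. Glasshouse 24/16° C, 14 h light, 65% RH, watered twice daily. Visual damage rating at 13 d, 0–100 scale.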

[8] = tested on: barnyardgrass (Echinochloa crus-galli); assay: Test G Pre-Emergence Protocol; conditions: Echinochloa crus-galli, pre-emergence, 312 h, evaluated after 13 days; for pest or weed control at 15.625 g/ha: 15.625 g ai/ha, read-out: Barnyard grass damage rating (100=total damage to plant; 0=no damage to plant); for pest or weed control at 62.5 g/ha: 62.5 g ai/ha, 100=total damage to plant, 0=no damage to plant, read-out: plant damage rating, Barnyardgrass; for pest or weed control at 250 g/ha: 250 g ai/ha, read-out: Barnyardgrass damage rating (100=total damage to plant; 0=no damage to plant)
Outline: as §2

corn (Zea mays) [9] = assay: Test G Pre-Emergence Protocol; conditions: Zea mays, pre-emergence, 312 h, evaluated after 13 days; for plant injury at 15.625 g/ha: 15.625 g ai/ha; for plant injury at 15.625 g/ha / plant injury at 250 g/ha: read-out: Corn damage rating (100=total damage to plant; 0=no damage to plant); for plant injury at 62.5 g/ha: 62.5 g ai/ha, 100=total damage to plant, 0=no damage to plant, read-out: plant damage rating, Corn; for plant injury at 250 g/ha: 250 g ai/ha
Outline: as §2

[10] = tested on: redroot pigweed (Amaranthus retroflexus); assay: Test G Pre-Emergence Protocol; conditions: Amaranthus retroflexus, pre-emergence, 312 h, evaluated after 13 days; for pest or weed control at 15.625 g/ha: 15.625 g ai/ha; for pest or weed control at 15.625 g/ha / pest or weed control at 250 g/ha: read-out: Pigweed, Redroot damage rating (100=total damage to plant; 0=no damage to plant); for pest or weed control at 62.5 g/ha: 62.5 g ai/ha, 100=total damage to plant, 0=no damage to plant, read-out: plant damage rating, Pigweed, Redroot; for pest or weed control at 250 g/ha: 250 g ai/ha
Outline: as §2

[11] = tested on: ivy-leaved morning glory (Ipomoea hederacea); assay: Test G Pre-Emergence Protocol; conditions: Ipomoea, pre-emergence, 312 h, evaluated after 13 days; for pest or weed control at 15.625 g/ha: 15.625 g ai/ha, read-out: Morning-glory, Ivy-leaved damage rating (100=total damage to plant; 0=no damage to plant); for pest or weed control at 62.5 g/ha: 62.5 g ai/ha, 100=total damage to plant, 0=no damage to plant, read-out: plant damage rating, Morningglory, Ivy-leaved; for pest or weed control at 250 g/ha: 250 g ai/ha, read-out: Morningglory, Ivy-leaved damage rating (100=total damage to plant; 0=no damage to plant)
Outline: as §2

[12] = tested on: velvetleaf (Abutilon theophrasti); assay: Test G Pre-Emergence Protocol; conditions: Abutilon theophrasti, pre-emergence, 312 h, evaluated after 13 days; for pest or weed control at 15.625 g/ha: 15.625 g ai/ha; for pest or weed control at 15.625 g/ha / pest or weed control at 250 g/ha: read-out: Velvetleaf damage rating (100=total damage to plant; 0=no damage to plant); for pest or weed control at 62.5 g/ha: 62.5 g ai/ha, 100=total damage to plant, 0=no damage to plant, read-out: plant damage rating, Velvetleaf; for pest or weed control at 250 g/ha: 250 g ai/ha
Outline: as §2

Row | SMILES | pest or weed control at 15.625 g/ha [1] | pest or weed control at 62.5 g/ha [1] | pest or weed control at 250 g/ha [1] | pest or weed control at 15.625 g/ha [2] | pest or weed control at 62.5 g/ha [2] | pest or weed control at 250 g/ha [2] | plant injury at 15.625 g/ha (corn (Zea mays) [3]) | plant injury at 62.5 g/ha (corn (Zea mays) [3]) | plant injury at 250 g/ha (corn (Zea mays) [3]) | pest or weed control at 15.625 g/ha [4] | pest or weed control at 62.5 g/ha [4] | pest or weed control at 250 g/ha [4] | pest or weed control at 15.625 g/ha [5] | pest or weed control at 62.5 g/ha [5] | pest or weed control at 250 g/ha [5] | pest or weed control at 15.625 g/ha [6] | pest or weed control at 62.5 g/ha [6] | pest or weed control at 250 g/ha [6] | pest or weed control at 15.625 g/ha [7] | pest or weed control at 62.5 g/ha [7] | other results
1 | CSc1ccccc1NC(=O)[C@@H]1C(=O)N(C)C[C@H]1c1ccc(C(F)(F)F)nc1 (racemic) [Compound 1584] | 0% | 40% | 80% | 0% | 0% | 70% | 0% | 10% | 0% | 0% | 0% | 40% | 0% | 20% | 10% | 0% | 0% | 20% | 0% | 50% | pest or weed control at 250 g/ha [7]: 90%; pest or weed control at 15.625 g/ha [8]: 0%; pest or weed control at 62.5 g/ha [8]: 0%; pest or weed control at 250 g/ha [8]: 90%; plant injury at 15.625 g/ha (corn (Zea mays) [9]): 0%; plant injury at 62.5 g/ha (corn (Zea mays) [9]): 0%; plant injury at 250 g/ha (corn (Zea mays) [9]): 70%; pest or weed control at 15.625 g/ha [10]: 0%; pest or weed control at 62.5 g/ha [10]: 0%; pest or weed control at 250 g/ha [10]: 60%; pest or weed control at 15.625 g/ha [11]: 0%; pest or weed control at 62.5 g/ha [11]: 0%; pest or weed control at 250 g/ha [11]: 10%; pest or weed control at 15.625 g/ha [12]: 0%; pest or weed control at 62.5 g/ha [12]: 0%; pest or weed control at 250 g/ha [12]: 20%
2 | CN1C[C@@H](c2ccnc(C(F)(F)F)c2)[C@H](C(=O)Nc2cccc(F)c2F)C1=O (racemic) [Compound 1585] | 60% | 60% | 70% | 70% | 80% | 70% | 30% | 60% | 80% | 0% | 20% | 30% | 20% | 30% | 70% | 0% | 20% | 30% | 70% | 80% | pest or weed control at 250 g/ha [7]: 90%; pest or weed control at 15.625 g/ha [8]: 70%; pest or weed control at 62.5 g/ha [8]: 90%; pest or weed control at 250 g/ha [8]: 90%; plant injury at 15.625 g/ha (corn (Zea mays) [9]): 0%; plant injury at 62.5 g/ha (corn (Zea mays) [9]): 80%; plant injury at 250 g/ha (corn (Zea mays) [9]): 80%; pest or weed control at 15.625 g/ha [10]: 0%; pest or weed control at 62.5 g/ha [10]: 0%; pest or weed control at 250 g/ha [10]: 20%; pest or weed control at 15.625 g/ha [11]: 0%; pest or weed control at 62.5 g/ha [11]: 30%; pest or weed control at 250 g/ha [11]: 80%; pest or weed control at 15.625 g/ha [12]: 0%; pest or weed control at 62.5 g/ha [12]: 0%; pest or weed control at 250 g/ha [12]: 30%
3 | CN1C[C@@H](c2ccc(C(F)(F)F)cc2)[C@H](C(=O)Nc2csc(C(F)(F)F)n2)C1=O (racemic) [Compound 1587] | 0% | 20% | 60% | 0% | 20% | 40% | 0% | 0% | 0% | 0% | 10% | 70% | 0% | 0% | 40% | 0% | 0% | 0% | 0% | 0% | pest or weed control at 250 g/ha [7]: 0%; pest or weed control at 15.625 g/ha [8]: 0%; pest or weed control at 62.5 g/ha [8]: 0%; pest or weed control at 250 g/ha [8]: 0%; plant injury at 15.625 g/ha (corn (Zea mays) [9]): 0%; plant injury at 62.5 g/ha (corn (Zea mays) [9]): 10%; plant injury at 250 g/ha (corn (Zea mays) [9]): 0%; pest or weed control at 15.625 g/ha [10]: 0%; pest or weed control at 62.5 g/ha [10]: 0%; pest or weed control at 250 g/ha [10]: 10%; pest or weed control at 15.625 g/ha [11]: 0%; pest or weed control at 62.5 g/ha [11]: 0%; pest or weed control at 250 g/ha [11]: 0%; pest or weed control at 15.625 g/ha [12]: 0%; pest or weed control at 62.5 g/ha [12]: 0%; pest or weed control at 250 g/ha [12]: 0%
